Values quoted from earlier work in publication PMC5263201, “GABAA receptor occupancy by subtype selective GABAAα2,3 modulators: PET studies in humans” (Psychopharmacology, 2016).
Read-outs that look alike come from different tables or passages of the source.

Legend:
[1] = tested on: GABAA receptor; conditions: cited from earlier work; for Receptor occupancy: ref Atack et al 2010a
[2] = target: BZ binding site, hippocampus synaptosomal membranes; set-up: method as in Dubinsky et al 2002; conditions: (e) rat brain synaptosomal membranes; [3H]Ro15-4513; ref Dubinsky et al 2002; read-out: Affinity in vitro at BZ binding site (Ki), hippocampus; cited from earlier work
[3] = target: GABAA receptor α2; set-up: method as in Sieghart 1995; conditions: (d) review; ref Sieghart 1995; read-out: Affinity in vitro at BZ binding site (Ki) α2; cited from earlier work
[4] = target: GABAA receptor α5; set-up: method as in Sieghart 1995; conditions: (d) review; ref Sieghart 1995; read-out: Affinity in vitro at BZ binding site (Ki) α5; cited from earlier work
[5] = target: GABAA receptor α3; set-up: method as in Sieghart 1995; conditions: (d) review; ref Sieghart 1995; read-out: Affinity in vitro at BZ binding site (Ki) α3; cited from earlier work
[6] = target: GABAA α1, α2, α3, and α5 subunits; set-up: method as in Sieghart 1995; conditions: ref Sieghart 1995; read-out: K i for the GABAA α1, α2, α3, and α5 subunits; cited from earlier work
[7] = target: GABAA α4 and α6 subunits; set-up: method as in Sieghart 1995; conditions: ref Sieghart 1995; read-out: K i for the α4 and α6 subunits; cited from earlier work
[8] = tested on: GABAA α3β3γ2; set-up: method as in Christian et al 2015; conditions: 1µM test concentration, GABA EC10, % of 1 µM diazepam, mean ±SE, ref Christian et al 2015; cited from earlier work
[9] = tested on: human recombinant GABAA receptors containing β3γ2 plus α2; set-up: method as in Atack et al 2010; conditions: maximum potentiation of GABA EC20 currents relative to chlordiazepoxide; ref Atack et al 2010; cited from earlier work
[10] = tested on: human recombinant GABAA receptors containing β3γ2 plus α3; set-up: method as in Atack et al 2010; conditions: maximum potentiation of GABA EC20 currents relative to chlordiazepoxide; ref Atack et al 2010; cited from earlier work
[11] = tested on: GABAA α2β3γ2; set-up: method as in Christian et al 2015; conditions: 1µM test concentration, GABA EC10, % of 1 µM diazepam, mean ±SE, ref Christian et al 2015; cited from earlier work
[12] = target: human recombinant GABAA receptors containing β3, γ2 plus α1; set-up: method as in Atack et al 2010a; conditions: L(tk-) cells, human recombinant β3γ2 plus α1; mean (SEM); ref Atack et al 2010a; read-out: Affinity in vitro at BZ binding site (Ki) α1; cited from earlier work
[13] = ref Atack et al 2010a; cited from earlier work
[14] = tested on: GABAA α1β2γ2; set-up: method as in Christian et al 2015; conditions: 1µM test concentration, GABA EC10, % of 1 µM diazepam, mean ±SE, ref Christian et al 2015; cited from earlier work
[15] = tested on: GABAA α5β3γ2; set-up: method as in Christian et al 2015; conditions: 1µM test concentration, GABA EC10, % of 1 µM diazepam, mean ±SE, ref Christian et al 2015; cited from earlier work
[16] = tested on: human recombinant GABAA receptors containing β3γ2 plus α1; set-up: method as in Atack et al 2010; conditions: ref Atack et al 2010, cited from earlier work; for Relative efficacy (%CDP) α1: maximum potentiation of GABA EC20 currents relative to chlordiazepoxide
[17] = target: human recombinant GABAA receptors containing β3, γ2 plus α2; set-up: method as in Atack et al 2010a; conditions: L(tk-) cells, human recombinant β3γ2 plus α2; mean (SEM); ref Atack et al 2010a; read-out: Affinity in vitro at BZ binding site (Ki) α2; cited from earlier work
[18] = target: human recombinant GABAA receptors containing β3, γ2 plus α3; set-up: method as in Atack et al 2010a; conditions: L(tk-) cells, human recombinant β3γ2 plus α3; mean (SEM); ref Atack et al 2010a; read-out: Affinity in vitro at BZ binding site (Ki) α3; cited from earlier work
[19] = target: human recombinant GABAA receptors containing β3, γ2 plus α5; set-up: method as in Atack et al 2010a; conditions: L(tk-) cells, human recombinant β3γ2 plus α5; mean (SEM); ref Atack et al 2010a; read-out: Affinity in vitro at BZ binding site (Ki) α5; cited from earlier work
[20] = tested on: human recombinant GABAA receptors containing β3γ2 plus α5; set-up: method as in Atack et al 2010; conditions: maximum potentiation of GABA EC20 currents relative to chlordiazepoxide; ref Atack et al 2010; cited from earlier work
[21] = tested on: human α5β2γ2 GABAA receptors; set-up: method as in Sanna et al 2002; conditions: GABA-evoked Cl- currents, means ±SE, ref Sanna et al 2002; cited from earlier work
[22] = tested on: human α3β2γ2 GABAA receptors; set-up: method as in Sanna et al 2002; conditions: GABA-evoked Cl- currents, means ±SE, ref Sanna et al 2002; cited from earlier work
[23] = tested on: GABAA receptor; set-up: method as in Bottlaender et al 1994; conditions: In NHP; corresponds to 4-500 µg/kg; ref Bottlaender et al 1994; cited from earlier work
[24] = tested on: human α1β2γ2 GABAA receptors; set-up: method as in Sanna et al 2002; conditions: GABA-evoked Cl- currents, means ±SE, ref Sanna et al 2002; cited from earlier work
[25] = target: GABAA receptor α1; set-up: method as in Sieghart 1995; conditions: (d) review; ref Sieghart 1995; read-out: Affinity in vitro at BZ binding site (Ki) α1; cited from earlier work
[26] = tested on: human α2β2γ2 GABAA receptors; set-up: method as in Sanna et al 2002; conditions: GABA-evoked Cl- currents, means ±SE, ref Sanna et al 2002; cited from earlier work
[27] = target: human recombinant GABAA receptors containing β3, γ2 plus α2; set-up: method as in Atack et al 1999; conditions: (c) human recombinant β3γ2 plus α2; [3H]Ro 15-1788; ref Atack et al 1999; read-out: Affinity in vitro at BZ binding site (Ki) α2; cited from earlier work
[28] = target: human recombinant GABAA receptors containing β3, γ2 plus α1; set-up: method as in Atack et al 1999; conditions: (c) human recombinant β3γ2 plus α1; [3H]Ro 15-1788; ref Atack et al 1999; read-out: Affinity in vitro at BZ binding site (Ki) α1; cited from earlier work
[29] = target: human recombinant GABAA receptors containing β3, γ2 plus α3; set-up: method as in Atack et al 1999; conditions: (c) human recombinant β3γ2 plus α3; [3H]Ro 15-1788; ref Atack et al 1999; read-out: Affinity in vitro at BZ binding site (Ki) α3; cited from earlier work
[30] = target: human recombinant GABAA receptors containing β3, γ2 plus α5; set-up: method as in Atack et al 1999; conditions: (c) human recombinant β3γ2 plus α5; [3H]Ro 15-1788; ref Atack et al 1999; read-out: Affinity in vitro at BZ binding site (Ki) α5; cited from earlier work

Row | Compound | Ki [2] | Ki [3] | Ki [5] | Relative efficacy (%CDP) α2 [9] | Relative efficacy (%CDP) α3 [10] | Ki [12] | maximum tolerated dose (MTD) [13] | Relative efficacy (%CDP) α1 [16] | Ki [17] | Ki [18] | Ki [19] | Relative efficacy (%CDP) α5 [20] | further results
1 | Cc1nnc2n1-c1ccc(Cl)cc1C(c1ccccc1)=NC2 [Alprazolam] | 5 nM |  |  |  |  |  |  |  |  |  |  |  | Receptor occupancy (RO) ([1]; 2mg/day, sedation, ref Fujita et al 1999): RO:16% (2mg/day, sedation) /Fujita et al 1999 Affinity: Dubinsky et al 2002
2 | CN1C(=O)CN=C(c2ccccc2)c2cc(Cl)ccc21 [Diazepam] | 12.6 nM | 16.9 nM | 17 nM |  |  |  |  |  |  |  |  |  | Receptor occupancy (RO) ([1]; at 30mg, sedation, ref Pauli et al 1992): RO:24%, at 30mg, sedation/ Pauli et al 1992 Affinity: c) Atack et al 1999, d) Sieghart 1995;; Ki [4]: 14.9 nM
3 | CCOC(=O)c1ncn2c1CN(C)C(=O)c1cc(F)ccc1-2 [Flumazenil] |  |  |  |  |  |  |  |  |  |  |  |  | Ki [6]: ~1 nM; Ki [7]: ~150 nM
4 | O=C1Nc2ccc(Cl)cc2C(c2ccccc2Cl)=NC1O (centres unmarked) [Lorazepam] | 8.6 nM |  |  |  |  |  |  |  |  |  |  |  | Receptor occupancy (RO) ([1]; 2 mg, ref Lindfors-Hughes et al 2005, Atack et al 2010b): RO: ≤10% (2 mg) / Lindfors-Hughes et al 2005, Atack et al 2010b Affinity: Dubinsky et al 2002
5 | CCn1ncnc1COc1nn2c(-c3ccccc3F)nnc2cc1C(C)(C)C [TPA-023, 7-(1,1-dimethylethyl)-6-(2-ethyl-2H-1,2,4-triazol-3-ylmethoxy)-3-(2-fluorophenyl)-1,2,4-triazolo[4,3-b]pyridazine] |  |  |  | 11% | 21% | 0.27 nM | 2 mg | 0% | 0.31 nM | 0.19 nM | 0.41 nM | 5% | Relative efficacy (%DZ) α3 [8]: 17±1%; Relative efficacy (%DZ) α2 [11]: 15±2%; Receptor occupancy ([1]; at 2mg, MTD): 35-65%; receptor occupancy with lack of overt sedation ([1]; ref Atack et al. 2010, 2011a,b): up to 50%; Relative efficacy (%DZ) α1 [14]: 5±3%; Relative efficacy (%DZ) α5 [15]: 6±4%; comment on intrinsic activity at α1 [16]: Christian et al 2015 Atack et al 2010 /antagonist at α1
6 | CC(C)(O)c1cnn2c(-c3ccc(F)c(-c4c(F)cccc4C#N)c3)cnc2n1 [TPA-023B] |  |  |  | 38±4% | 50±2% | 0.73 ± 0.21 nM | 2 mg | 3±1% | 2 ± 0.4 nM | 1.8 ± 0.4 nM | 1.1 ± 0.2 nM | 37±4% | Receptor occupancy ([1]; at 1.5 mg): 53%
7 | Cc1nnc2n1-c1ccc(Cl)cc1C(c1ccccc1Cl)=NC2 [Triazolam] |  | 1.2 ± 0.2 nM | 3 ± 0.7 nM |  |  |  |  |  |  |  |  |  | Relative efficacy (%) α5, maximal percentage potentiation [21]: 165±8%; Relative efficacy (%) α3, maximal percentage potentiation [22]: 270±13%; Receptor occupancy (RO) [23]: In NHP: 5-100% RO corresponds to 4-500 µg/kg/ Bottlaender et al 1994 Affinity: Sieghart 1995; Ki [4]: 1.2 ± 0.3 nM; Relative efficacy (%) α1, maximal percentage potentiation [24]: 132±6%; Ki [25]: 1.8 ± 0.4 nM; Relative efficacy (%) α2, maximal percentage potentiation [26]: 255±11%
8 | Cc1ccc(-c2nc3ccc(C)cn3c2CC(=O)N(C)C)cc1 [Zolpidem] |  | 291 nM | 357 nM |  |  |  |  |  |  |  |  |  | Relative efficacy (%) α5, maximal percentage potentiation [21]: 15±5%; Ki [27]: 160 nM; Relative efficacy (%) α3, maximal percentage potentiation [22]: 217±34%; Ki [28]: 27 nM; Receptor occupancy (RO) ([1]; 20mg, drowsiness, ref Abadie et al 1996): 21%; Receptor occupancy (RO) ([1]; at 10mg therapeutic dose, ref Abadie et al 1996): 15%; Relative efficacy (%) α1, maximal percentage potentiation [24]: 100±5%; Ki [25]: 17 nM; Relative efficacy (%) α2, maximal percentage potentiation [26]: 198±20%; Ki [29]: 380 nM; Ki [30]: > 10 µM
9 | MRK-409 |  |  |  | 23% | 45% | 0.22 ± 0.02 nM | 1 mg | 18% | 0.4 ± 0.07 nM | 0.21 ± 0.03 nM | 0.23 ± 0.04 nM | 18% | Receptor occupancy ([1]; at 1mg, MTD): < 10%; receptor occupancy at severe sedation ([1]; ref Atack et al. 2010, 2011a,b): < 10%; comment on intrinsic activity at α1 [16]: Atack et al 2010/weak partial agonist at α1
